This test concerns the target T1, 3-mercaptopyruvate sulfurtransferase (3-MST) (Homo sapiens, UniProt P25325).
T1 sequence (P25325 2-297): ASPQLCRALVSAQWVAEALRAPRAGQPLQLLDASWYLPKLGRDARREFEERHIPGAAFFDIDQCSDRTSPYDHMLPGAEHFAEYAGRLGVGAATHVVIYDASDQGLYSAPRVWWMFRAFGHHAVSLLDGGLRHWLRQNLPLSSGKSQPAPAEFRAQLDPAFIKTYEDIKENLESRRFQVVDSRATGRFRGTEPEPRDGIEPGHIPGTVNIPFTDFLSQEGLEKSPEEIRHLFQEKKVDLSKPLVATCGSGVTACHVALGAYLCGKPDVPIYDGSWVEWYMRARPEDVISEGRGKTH
Nature of the test: biochemical 3-MST inhibition assay, concentration-response.

The term IC50 denotes the concentration at which inhibition is half-maximal. `COc1cc2cc(Oc3ccc4ccc(=O)oc4c3)c(=O)oc2cc1O` [compound 5, Daphnoretin] yielded a half-inhibitory concentration (IC50) of 9.59 ± 1.22 µM.

For the origin of these results see article PMC13050340 (Journal of Computer-Aided Molecular Design, 2026).
